According to the NIST ThermoML archive (doi:10.1007/s10765-006-0082-x):

Experiment: compressibility factor (dimensionless); xn = mol fraction of the nth substance listed
Settings: Liquid, Burnett expansion method

[N-]=[N+]=O [nitrous oxide] + FC(F)F
Settings | compressibility factor
323.44 K, 385.6 kPa, x1 = 0.358 | 0.9809
323.44 K, 527.1 kPa, x1 = 0.6428 | 0.9764
323.44 K, 562.3 kPa, x1 = 0.7792 | 0.9759
323.44 K, 571.6 kPa, x1 = 0.358 | 0.972
323.44 K, 779.5 kPa, x1 = 0.6428 | 0.9653
323.44 K, 831.2 kPa, x1 = 0.7792 | 0.9642
323.44 K, 843.2 kPa, x1 = 0.358 | 0.9583
323.44 K, 1145.9 kPa, x1 = 0.6428 | 0.9485
323.44 K, 1221 kPa, x1 = 0.7792 | 0.9467
323.44 K, 1235.2 kPa, x1 = 0.358 | 0.9384
323.44 K, 1669.1 kPa, x1 = 0.6428 | 0.9234
323.44 K, 1777.2 kPa, x1 = 0.7792 | 0.921
323.44 K, 1790.3 kPa, x1 = 0.358 | 0.9091
323.44 K, 2399.2 kPa, x1 = 0.6428 | 0.8872
323.44 K, 2551 kPa, x1 = 0.7792 | 0.8837
323.44 K, 2553.4 kPa, x1 = 0.358 | 0.8666
323.44 K, 3379.9 kPa, x1 = 0.6428 | 0.8354
323.44 K, 3557 kPa, x1 = 0.358 | 0.8069
323.44 K, 3585.4 kPa, x1 = 0.7792 | 0.8302
343.87 K, 201 kPa, x1 = 0.7837 | 0.9917
343.87 K, 299.8 kPa, x1 = 0.7837 | 0.9888
343.87 K, 446.5 kPa, x1 = 0.7837 | 0.9842
343.87 K, 663 kPa, x1 = 0.7837 | 0.9769
343.87 K, 980.8 kPa, x1 = 0.7837 | 0.966
343.87 K, 1442.6 kPa, x1 = 0.7837 | 0.9497
343.87 K, 2103.1 kPa, x1 = 0.7837 | 0.9254
343.87 K, 3026.4 kPa, x1 = 0.7837 | 0.8901
343.87 K, 4273 kPa, x1 = 0.7837 | 0.8401
343.95 K, 79.8 kPa, x1 = 0.6698 | 0.9965
343.95 K, 90.5 kPa, x1 = 0.2403 | 0.991
343.95 K, 92.3 kPa, x1 = 0.4174 | 0.9925
343.95 K, 119.5 kPa, x1 = 0.6698 | 0.9953
343.95 K, 128.4 kPa, x1 = 0.536 | 0.9933
343.95 K, 135.6 kPa, x1 = 0.2403 | 0.991
343.95 K, 138.2 kPa, x1 = 0.4174 | 0.9917
343.95 K, 178.9 kPa, x1 = 0.6698 | 0.9945
343.95 K, 192 kPa, x1 = 0.536 | 0.9915
343.95 K, 202.9 kPa, x1 = 0.2403 | 0.9897
343.95 K, 206.8 kPa, x1 = 0.4174 | 0.9901
343.95 K, 266.9 kPa, x1 = 0.6698 | 0.9901
343.95 K, 287 kPa, x1 = 0.536 | 0.9886
343.95 K, 303.2 kPa, x1 = 0.2403 | 0.9866
343.95 K, 308.9 kPa, x1 = 0.4174 | 0.9871
343.95 K, 398.2 kPa, x1 = 0.6698 | 0.9857
343.95 K, 428 kPa, x1 = 0.536 | 0.9839
343.95 K, 451.8 kPa, x1 = 0.2403 | 0.9812
343.95 K, 460.6 kPa, x1 = 0.4174 | 0.9821
343.95 K, 592.7 kPa, x1 = 0.6698 | 0.9789
343.95 K, 636.6 kPa, x1 = 0.536 | 0.9767
343.95 K, 671.3 kPa, x1 = 0.2403 | 0.9728
343.95 K, 684.7 kPa, x1 = 0.4174 | 0.9741
343.95 K, 879 kPa, x1 = 0.6698 | 0.9688
343.95 K, 943.2 kPa, x1 = 0.536 | 0.9656
343.95 K, 992.7 kPa, x1 = 0.2403 | 0.9599
343.95 K, 1013 kPa, x1 = 0.4174 | 0.9617
343.95 K, 1296.6 kPa, x1 = 0.6698 | 0.9537
343.95 K, 1389 kPa, x1 = 0.536 | 0.9489
343.95 K, 1457.5 kPa, x1 = 0.2403 | 0.9405
343.95 K, 1488.7 kPa, x1 = 0.4174 | 0.9431
343.95 K, 1897.6 kPa, x1 = 0.6698 | 0.9313
343.95 K, 2027.4 kPa, x1 = 0.536 | 0.9241
343.95 K, 2117.9 kPa, x1 = 0.2403 | 0.9119
343.95 K, 2166.3 kPa, x1 = 0.4174 | 0.9157
343.95 K, 2743.8 kPa, x1 = 0.6698 | 0.8986
343.95 K, 2920 kPa, x1 = 0.536 | 0.8882
343.95 K, 3030.8 kPa, x1 = 0.2403 | 0.8708
343.95 K, 3105.8 kPa, x1 = 0.4174 | 0.8761
343.95 K, 3898.2 kPa, x1 = 0.6698 | 0.8519
343.95 K, 4125.5 kPa, x1 = 0.536 | 0.8374
343.95 K, 4242.9 kPa, x1 = 0.2403 | 0.8135
343.95 K, 4359.1 kPa, x1 = 0.4174 | 0.8205
